# Results published in patent US8367830B2, “Methods for the identification of phosphatidylinositol kinase interacting molecules and for the purification of phosphatidylinositol kinase proteins” (Cellzome AG, priority 2009, dated 2013).
# How the values were obtained:
# AurA = biological target: T1, AurA (Homo sapiens, UniProt O14965); assay: Kinobeads competition binding, immobilized CZC31207, HeLa/placenta lysate mix; details: 10 μM free compound; mixed HeLa and placenta cell lysates
# T1 construct: endogenous in cells; host or cells: mixed lysate of HeLa cells and placenta
# Procedure: (§1) To the first aliquot of cell lysate 10 μM of the free compound (CZC31207) was added and allowed to bind to proteins in the lysate. Then the affinity matrix with the immobilized compound (Example 1) was added to capture proteins that were not interacting with the previously added free compound. Beads were separated from the lysate and bead bound proteins were eluted in SDS sample buffer and subsequently separated by SDS-Polyacrylamide gel electrophoresis (FIG. 4). Suitable gel bands were cut out and subjected to in-gel proteolytic digestion with trypsin. The second lysate aliquot was processed identically, however no free compound was added (DMSO solvent control). Peptides originating from samples 1 and 2 were labeled with iTRAQ reagents (iTRAQ 115 and iTRAQ 117) and the combined samples were analyzed with a nano-flow liquid chromatography system coupled online to a tandem mass spectrometer (LC-MS/MS) experiment followed by iTRAQ reporter ion quantification in the MS/MS spectra (Ross et al., 2004. Mol. Cell. Proteomics 3(12):1154-1169). Further experimental protocols can be found in WO2006/134056 and a previous publication (Bantscheff et al., 2007. Nature Biotechnology 25, 1035-1044).
# (§2) Cells were homogenized in a Potter S homogenizer in lysis buffer: 50 mM Tris-HCl, 0.8% NP40, 5% glycerol, 150 mM NaCl, 1.5 mM MgCl2, 25 mM NaF, 1 mM sodium vanadate, 1 mM DTT, pH 7.5. One complete EDTA-free tablet (protease inhibitor cocktail, Roche Diagnostics, 1 873 580) per 25 ml buffer was added. The material was dounced 20 times using a mechanized POTTER S, transferred to 50 ml falcon tubes, incubated for 30 minutes rotating at 4° C. and spun down for 10 minutes at 20,000×g at 4° C. (10,000 rpm in Sorvall SLA600, precooled). The supernatant was transferred to an ultracentrifuge (UZ)-polycarbonate tube (Beckmann, 355654) and spun for 1 hour at 145.000×g at 4° C. (40.000 rpm in Ti50.2, precooled). The supernatant was transferred again to a fresh 50 ml falcon tube, the protein concentration was determined by a Bradford assay (BioRad) and samples containing 50 mg of protein per aliquot were prepared. The samples were immediately used for experiments or frozen in liquid nitrogen and stored frozen at −80° C.
# (§3) Sepharose-beads with the immobilized compound (100 μl beads per pull-down experiment) were equilibrated in lysis buffer and incubated with a cell lysate sample containing 50 mg of protein on an end-over-end shaker (Roto Shake Genie, Scientific Industries Inc.) for 2 hours at 4° C. Beads were collected, transferred to Mobicol-columns (MoBiTech 10055) and washed with 10 ml lysis buffer containing 0.4% NP40 detergent, followed by 5 ml lysis buffer containing 0.2% detergent. To elute bound proteins, 60 μl 2×SDS sample buffer was added to the column. The column was incubated for 30 minutes at 50° C. and the eluate was transferred to a siliconized microfuge tube by centrifugation. Proteins were then alkylated with 108 mM iodoacetamid. Proteins were then separated by SDS-Polyacrylamide electrophoresis (SDS-PAGE).
# (§4) Gel-separated proteins were digested in-gel essentially following a previously described procedure (Shevchenko et al., 1996, Anal. Chem. 68:850-858). Briefly, gel-separated proteins were excised from the gel using a clean scalpel, destained twice using 100 μl 5 mM triethylammonium bicarbonate buffer (TEAB; Sigma T7408) and 40% ethanol in water and dehydrated with absolute ethanol. Proteins were subsequently digested in-gel with porcine trypsin (Promega) at a protease concentration of 10 ng/μl in 5 mM TEAB. Digestion was allowed to proceed for 4 hours at 37° C. and the reaction was subsequently stopped using 5 μl 5% formic acid.
# (§5) Gel plugs were extracted twice with 20 μl 1% formic acid and three times with increasing concentrations of acetonitrile. Extracts were subsequently pooled with acidified digest supernatants and dried in a vacuum centrifuge. […]
# Erk2 = biological target: T2, Erk2 (Homo sapiens, UniProt P28482); assay: as above; details: 10 μM free compound; mixed HeLa and placenta cell lysates
# T2 construct: endogenous in cells; host or cells: mix of HeLa cell lysate and placenta lysate
# T2 sequence (P28482 whole entry): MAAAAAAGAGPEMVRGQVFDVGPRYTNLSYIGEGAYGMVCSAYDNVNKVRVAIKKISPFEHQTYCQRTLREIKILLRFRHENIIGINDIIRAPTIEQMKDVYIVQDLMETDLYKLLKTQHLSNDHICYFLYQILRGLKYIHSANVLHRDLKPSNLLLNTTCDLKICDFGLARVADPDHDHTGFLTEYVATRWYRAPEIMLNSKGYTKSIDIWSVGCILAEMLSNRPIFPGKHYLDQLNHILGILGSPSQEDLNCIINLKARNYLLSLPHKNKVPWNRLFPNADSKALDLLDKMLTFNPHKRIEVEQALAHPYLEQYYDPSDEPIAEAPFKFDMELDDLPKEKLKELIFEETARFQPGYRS
# Procedure: as §1, §2, §3, §4, §5
# JNK2 = biological target: T3, JNK2 (Homo sapiens, UniProt P45984); assay: as above; details: 10 μM free compound; mixed HeLa and placenta cell lysates
# T3 construct: endogenous in cells; host or cells: mixed lysate of HeLa cells and placenta
# Procedure: as §1, §2, §3, §4, §5
# MAP3K6 = biological target: T4, MAP3K6 (Homo sapiens, UniProt O95382); assay: as above; details: 10 μM free compound; mixed HeLa and placenta cell lysates
# T4 construct: endogenous in cells; host or cells: mixed lysate of HeLa cells and placenta
# T4 sequence (O95382 whole entry): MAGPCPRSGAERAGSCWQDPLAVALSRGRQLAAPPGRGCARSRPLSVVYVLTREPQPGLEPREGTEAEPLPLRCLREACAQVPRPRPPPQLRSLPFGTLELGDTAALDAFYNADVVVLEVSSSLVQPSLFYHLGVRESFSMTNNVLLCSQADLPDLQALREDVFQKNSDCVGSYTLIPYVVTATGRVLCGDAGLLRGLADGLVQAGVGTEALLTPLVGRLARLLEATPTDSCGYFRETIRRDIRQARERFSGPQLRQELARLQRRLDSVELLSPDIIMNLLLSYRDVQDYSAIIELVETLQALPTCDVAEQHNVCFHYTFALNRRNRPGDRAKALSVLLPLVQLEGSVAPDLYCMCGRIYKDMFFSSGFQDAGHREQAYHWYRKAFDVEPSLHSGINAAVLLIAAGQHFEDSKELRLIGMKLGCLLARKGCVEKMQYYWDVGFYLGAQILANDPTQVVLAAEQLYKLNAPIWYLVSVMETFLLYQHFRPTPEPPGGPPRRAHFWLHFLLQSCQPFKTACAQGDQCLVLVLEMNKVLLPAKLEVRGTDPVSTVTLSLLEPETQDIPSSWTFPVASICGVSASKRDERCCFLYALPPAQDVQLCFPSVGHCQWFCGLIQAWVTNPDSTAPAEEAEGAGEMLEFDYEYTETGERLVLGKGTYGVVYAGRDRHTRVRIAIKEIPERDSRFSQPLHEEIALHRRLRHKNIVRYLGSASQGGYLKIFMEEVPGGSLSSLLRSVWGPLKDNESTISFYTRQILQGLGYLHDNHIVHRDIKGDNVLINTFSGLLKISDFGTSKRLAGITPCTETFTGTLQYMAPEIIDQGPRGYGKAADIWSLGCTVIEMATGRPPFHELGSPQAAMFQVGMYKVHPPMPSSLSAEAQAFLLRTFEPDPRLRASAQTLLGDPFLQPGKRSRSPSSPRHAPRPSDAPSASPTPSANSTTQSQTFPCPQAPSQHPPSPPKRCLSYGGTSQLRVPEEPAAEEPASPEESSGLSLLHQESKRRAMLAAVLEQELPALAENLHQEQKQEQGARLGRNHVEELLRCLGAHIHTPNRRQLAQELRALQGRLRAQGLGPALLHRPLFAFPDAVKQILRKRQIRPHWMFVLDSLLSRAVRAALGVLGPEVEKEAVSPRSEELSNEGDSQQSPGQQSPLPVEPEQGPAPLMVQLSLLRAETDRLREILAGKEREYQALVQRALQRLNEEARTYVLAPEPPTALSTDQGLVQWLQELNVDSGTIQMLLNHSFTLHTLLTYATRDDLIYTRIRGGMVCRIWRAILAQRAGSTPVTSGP
# Procedure: as §1, §2, §3, §4, §5
# MLKL = biological target: T5, MLKL (Homo sapiens, UniProt Q8NB16); assay: as above; details: 10 μM free compound; mixed HeLa and placenta cell lysates
# T5 construct: endogenous in cells; host or cells: mix of HeLa cell lysate and placenta lysate
# Procedure: as §1, §2, §3, §4, §5
# PIK3Ca = biological target: T6, PIK3Ca (Homo sapiens, UniProt P42336); assay: as above; details: 10 μM free compound; mixed HeLa and placenta cell lysates
# T6 construct: endogenous in cells; host or cells: mix of HeLa cell lysate and placenta lysate
# Procedure: as §1, §2, §3, §4, §5
# TNK1 = biological target: T7, TNK1 (Homo sapiens, UniProt Q13470); assay: as above; details: 10 μM free compound; mixed HeLa and placenta cell lysates
# T7 construct: endogenous in cells; host or cells: mix of HeLa cell lysate and placenta lysate
# Procedure: as §1, §2, §3, §4, §5
# BIKE = biological target: T8, BIKE (Homo sapiens, UniProt Q9NSY1); assay: Kinobeads competition binding, immobilized CZC31207, Jurkat/Ramos lysate mix; details: 10 μM free compound; mix of Jurkat and Ramos cell lysates
# T8 construct: endogenous in cells; host or cells: mix of Jurkat and Ramos cell lysates
# T8 sequence (Q9NSY1 whole entry): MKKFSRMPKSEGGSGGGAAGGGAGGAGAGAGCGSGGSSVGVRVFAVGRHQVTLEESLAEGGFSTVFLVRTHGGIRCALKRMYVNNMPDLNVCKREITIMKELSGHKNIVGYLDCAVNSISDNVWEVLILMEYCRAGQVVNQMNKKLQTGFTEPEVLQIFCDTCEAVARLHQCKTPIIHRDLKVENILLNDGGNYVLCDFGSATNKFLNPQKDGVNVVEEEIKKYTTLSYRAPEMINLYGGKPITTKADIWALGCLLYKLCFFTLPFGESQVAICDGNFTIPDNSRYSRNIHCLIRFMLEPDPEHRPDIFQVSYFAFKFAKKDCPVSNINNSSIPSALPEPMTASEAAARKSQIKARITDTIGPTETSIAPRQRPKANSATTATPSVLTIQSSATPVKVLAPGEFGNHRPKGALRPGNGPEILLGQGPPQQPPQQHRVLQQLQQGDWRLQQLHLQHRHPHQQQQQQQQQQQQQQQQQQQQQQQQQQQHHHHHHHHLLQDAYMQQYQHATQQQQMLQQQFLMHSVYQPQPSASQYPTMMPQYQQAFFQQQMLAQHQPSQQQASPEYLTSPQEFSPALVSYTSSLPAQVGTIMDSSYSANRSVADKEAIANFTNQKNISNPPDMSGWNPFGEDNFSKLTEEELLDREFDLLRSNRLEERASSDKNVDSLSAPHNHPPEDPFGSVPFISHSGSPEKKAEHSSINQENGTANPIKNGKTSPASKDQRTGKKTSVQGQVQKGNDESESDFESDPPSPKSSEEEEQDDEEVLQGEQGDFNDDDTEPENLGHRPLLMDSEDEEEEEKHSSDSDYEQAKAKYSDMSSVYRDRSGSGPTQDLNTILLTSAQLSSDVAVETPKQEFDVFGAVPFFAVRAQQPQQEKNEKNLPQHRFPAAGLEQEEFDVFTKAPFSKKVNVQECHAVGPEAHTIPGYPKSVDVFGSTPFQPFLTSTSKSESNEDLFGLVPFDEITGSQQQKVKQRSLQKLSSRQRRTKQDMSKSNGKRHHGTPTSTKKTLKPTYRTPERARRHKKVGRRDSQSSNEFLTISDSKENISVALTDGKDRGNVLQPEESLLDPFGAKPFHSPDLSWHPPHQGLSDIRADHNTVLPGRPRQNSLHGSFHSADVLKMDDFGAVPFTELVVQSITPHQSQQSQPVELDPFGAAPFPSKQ
# Procedure: (§6) To the first aliquot of cell lysate 10 μM of the free compound CZC31207 was added and allowed to bind to proteins in the lysate. Then the affinity matrix with the immobilized compound was added to capture proteins that were not interacting with the previously added free compound. Beads were separated from the lysate and bead bound proteins were eluted in SDS sample buffer and subsequently separated by SDS-Polyacrylamide gel electrophoresis (FIG. 5). Suitable gel bands were cut out and subjected to in-gel proteolytic digestion with trypsin. The second lysate aliquot was processed identically, however no free compound was added (DMSO solvent control). Peptides originating from samples 1 and 2 were labeled with iTRAQ reagents (iTRAQ 114 and iTRAQ 116) and the combined samples were analyzed with a nano-flow liquid chromatography system coupled online to a tandem mass spectrometer (LC-MS/MS) experiment followed by iTRAQ reporter ion quantification in the MS/MS spectra as described in Example 2.
# (§7) Jurkat cells (ATCC number T1B-152) and Ramos cells (ATCC number CRL-1596) were either obtained from an external supplier (CIL SA, Mons, Belgium) or grown in one litre Spinner flasks (Integra Biosciences, #182101) in suspension in RPMI 1640 medium (Invitrogen, #21875-034) supplemented with 10% Fetal Bovine Serum (Invitrogen, #10270-106) at a density between 0.2×10^6 and 1.0×10^6 cells/ml. Cells were harvested by centrifugation, washed once with 1×PBS buffer (Invitrogen, #14190-094) and cell pellets were frozen in liquid nitrogen and subsequently stored at −80° C.
# (§8) The identified kinases are shown in Table 5 including the percent competition values for the sample to which 10 μM free compound had been added. In total of 20 different kinases were identified and competed by different degrees.
# CDC2 = biological target: T9, CDC2 (Homo sapiens, UniProt P06493); assay: as above; details: 10 μM free compound; mix of Jurkat and Ramos cell lysates
# T9 construct: endogenous in cells; host or cells: mixed lysate of Jurkat and Ramos cells
# T9 sequence (P06493 whole entry): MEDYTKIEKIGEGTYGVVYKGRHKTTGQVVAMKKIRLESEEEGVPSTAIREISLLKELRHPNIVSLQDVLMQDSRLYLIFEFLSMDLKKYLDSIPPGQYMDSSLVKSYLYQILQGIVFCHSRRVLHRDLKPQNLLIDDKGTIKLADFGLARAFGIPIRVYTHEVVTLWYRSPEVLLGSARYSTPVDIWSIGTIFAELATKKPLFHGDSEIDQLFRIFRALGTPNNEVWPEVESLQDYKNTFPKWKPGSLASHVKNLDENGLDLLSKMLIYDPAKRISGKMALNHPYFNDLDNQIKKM
# Procedure: as §6, §7, §8
# CDK6 = biological target: T10, CDK6 (Homo sapiens, UniProt Q00534); assay: as above; details: 10 μM free compound; mix of Jurkat and Ramos cell lysates
# T10 construct: endogenous in cells; host or cells: mixed lysate of Jurkat and Ramos cells
# T10 sequence (Q00534 whole entry): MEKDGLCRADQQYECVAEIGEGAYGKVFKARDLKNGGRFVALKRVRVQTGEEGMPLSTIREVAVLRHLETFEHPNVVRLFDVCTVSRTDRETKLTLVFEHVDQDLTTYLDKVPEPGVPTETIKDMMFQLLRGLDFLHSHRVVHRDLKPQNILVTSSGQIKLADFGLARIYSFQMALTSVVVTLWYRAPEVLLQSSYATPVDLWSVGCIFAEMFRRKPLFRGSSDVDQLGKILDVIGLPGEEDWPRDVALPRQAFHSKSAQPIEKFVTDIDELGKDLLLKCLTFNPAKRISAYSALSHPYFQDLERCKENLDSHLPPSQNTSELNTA
# Procedure: as §6, §7, §8
# CaMK2d = biological target: T11, CaMK2d (Homo sapiens, UniProt Q13557); assay: as above; details: 10 μM free compound; mix of Jurkat and Ramos cell lysates
# T11 construct: endogenous in cells; host or cells: mix of Jurkat and Ramos cell lysates
# Procedure: as §6, §7, §8
# MST1 = biological target: T12, MST1 (Homo sapiens, UniProt Q13043); assay: as above; details: 10 μM free compound; mix of Jurkat and Ramos cell lysates
# T12 construct: endogenous in cells; host or cells: mixed lysate of Jurkat and Ramos cells
# Procedure: as §6, §7, §8
# PIK3C3 = biological target: T13, PIK3C3 (Homo sapiens, UniProt Q8NEB9); assay: as above; details: 10 μM free compound; mix of Jurkat and Ramos cell lysates
# T13 construct: endogenous in cells; host or cells: mixed lysate of Jurkat and Ramos cells
# Procedure: as §6, §7, §8
# PIK4C2B = biological target: T14, PIK4C2B (Homo sapiens, UniProt Q8TCG2); assay: as above; details: 10 μM free compound; mix of Jurkat and Ramos cell lysates
# T14 construct: endogenous in cells; host or cells: mixed lysate of Jurkat and Ramos cells
# Procedure: as §6, §7, §8
# PIP5K2A = biological target: T15, PIP5K2A (Homo sapiens, UniProt P48426); assay: as above; details: 10 μM free compound; mix of Jurkat and Ramos cell lysates
# T15 construct: endogenous in cells
# Procedure: as §6, §7, §8
# PKD2 = biological target: T16, PKD2 (Homo sapiens, UniProt Q9BZL6); assay: as above; details: 10 μM free compound; mix of Jurkat and Ramos cell lysates
# T16 construct: endogenous in cells; host or cells: mixed lysate of Jurkat and Ramos cells
# Procedure: as §6, §7, §8
# BCKDK = BCKDK (Homo sapiens, UniProt O14874); assay: Kinobeads competition binding, immobilized CZC31207, HeLa/placenta lysate mix; set-up: endogenous in cells; details: 10 μM free compound; mixed HeLa and placenta cell lysates
# Procedure: as §1, §2
# as §3, with “The column was incubated for 30 minutes at 50° C. and the eluate was transferred to a siliconized microfuge tube by centrifugation. Proteins were then alkylated with 108 mM iodoacetamid. Proteins were then separated by SDS-Polyacrylamide electrophoresis (SDS-PAGE).” left out
# CaMK2g = CaMK2g (Homo sapiens, UniProt Q13555); assay: as above; set-up: endogenous in cells; details: 10 μM free compound; mixed HeLa and placenta cell lysates
# Procedure: as §1, §2
# as §3, with “The column was incubated for 30 minutes at 50° C. and the eluate was transferred to a siliconized microfuge tube by centrifugation. Proteins were then alkylated with 108 mM iodoacetamid. Proteins were then separated by SDS-Polyacrylamide electrophoresis (SDS-PAGE).” left out
# MAP3K1 = MAP3K1 (Homo sapiens, UniProt Q13233); assay: as above; set-up: endogenous in cells; details: 10 μM free compound; mixed HeLa and placenta cell lysates
# Chain of MAP3K1 (Q13233 whole entry): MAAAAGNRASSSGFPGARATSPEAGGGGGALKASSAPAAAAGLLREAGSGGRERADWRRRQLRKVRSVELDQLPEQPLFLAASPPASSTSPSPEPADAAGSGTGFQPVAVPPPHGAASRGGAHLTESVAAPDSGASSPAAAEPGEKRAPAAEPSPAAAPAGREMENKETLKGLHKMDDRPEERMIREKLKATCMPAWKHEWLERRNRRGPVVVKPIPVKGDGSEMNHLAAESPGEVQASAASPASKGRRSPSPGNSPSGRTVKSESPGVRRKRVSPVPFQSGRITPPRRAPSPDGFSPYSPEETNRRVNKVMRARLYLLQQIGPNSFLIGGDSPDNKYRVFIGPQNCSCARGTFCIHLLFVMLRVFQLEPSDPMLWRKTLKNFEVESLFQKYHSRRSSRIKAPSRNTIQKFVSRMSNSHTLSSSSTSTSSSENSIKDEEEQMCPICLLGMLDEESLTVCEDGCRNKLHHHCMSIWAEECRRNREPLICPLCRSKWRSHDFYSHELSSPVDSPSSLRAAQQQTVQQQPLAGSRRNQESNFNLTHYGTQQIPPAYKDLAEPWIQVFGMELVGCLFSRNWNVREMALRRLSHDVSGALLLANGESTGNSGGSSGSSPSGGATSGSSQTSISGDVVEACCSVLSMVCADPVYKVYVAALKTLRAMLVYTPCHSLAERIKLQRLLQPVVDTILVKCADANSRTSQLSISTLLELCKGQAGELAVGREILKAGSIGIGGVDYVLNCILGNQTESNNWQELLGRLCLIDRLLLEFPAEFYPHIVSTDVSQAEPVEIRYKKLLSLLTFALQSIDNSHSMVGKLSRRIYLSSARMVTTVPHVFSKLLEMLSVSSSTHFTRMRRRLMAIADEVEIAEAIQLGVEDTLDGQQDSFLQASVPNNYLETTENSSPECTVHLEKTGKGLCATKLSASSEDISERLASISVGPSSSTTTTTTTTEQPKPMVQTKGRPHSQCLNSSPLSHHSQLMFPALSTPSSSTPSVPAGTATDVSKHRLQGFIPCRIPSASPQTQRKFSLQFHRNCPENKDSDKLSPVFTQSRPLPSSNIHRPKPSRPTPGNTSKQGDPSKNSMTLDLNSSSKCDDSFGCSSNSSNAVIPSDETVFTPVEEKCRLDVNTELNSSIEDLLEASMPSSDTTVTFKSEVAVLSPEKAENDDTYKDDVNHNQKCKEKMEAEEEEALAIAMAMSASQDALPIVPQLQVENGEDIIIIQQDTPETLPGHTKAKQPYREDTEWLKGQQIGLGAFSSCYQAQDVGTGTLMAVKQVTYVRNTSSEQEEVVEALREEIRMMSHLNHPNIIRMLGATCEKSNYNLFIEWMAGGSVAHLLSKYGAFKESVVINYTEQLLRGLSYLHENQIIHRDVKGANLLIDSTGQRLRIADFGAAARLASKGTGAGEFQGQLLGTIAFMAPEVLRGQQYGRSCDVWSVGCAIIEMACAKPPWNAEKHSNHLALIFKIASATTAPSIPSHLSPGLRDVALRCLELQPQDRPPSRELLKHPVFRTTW
# Procedure: as §1, §2
# as §3, with “The column was incubated for 30 minutes at 50° C. and the eluate was transferred to a siliconized microfuge tube by centrifugation. Proteins were then alkylated with 108 mM iodoacetamid. Proteins were then separated by SDS-Polyacrylamide electrophoresis (SDS-PAGE).” left out
structure (smiles),measurement,setting,value
"CC(C)NS(=O)(=O)c1cncc(-c2ccc3nc(NC(=O)NCCN)nn3c2)c1 [CZC31207, 5-(2-(3-(2-aminoethyl)ureido)-[1,2,4]triazolo[1,5-a]pyridin-6-yl)-N-isopropylpyridine-3-sulfonamide]",Competition % AurA,AurA,12.8%
same,Competition % Erk2,Erk2,−2.9%
same,Competition % JNK2,JNK2,24.6%
same,Competition % MAP3K6,MAP3K6,10.3%
same,Competition % MLKL,MLKL,34.2%
same,Competition % PIK3Ca,PIK3Ca,68.6%
same,Competition % TNK1,TNK1,−1.9%
same,Competition % BIKE,BIKE,26.1%
same,Competition % CDC2,CDC2,34.1%
same,Competition % CDK6,CDK6,−1.6%
same,Competition % CaMK2d,CaMK2d,−1.3%
same,Competition % MST1,MST1,24.5%
same,Competition % PIK3C3,PIK3C3,52.4%
same,Competition % PIK4C2B,PIK4C2B,20.3%
same,Competition % PIP5K2A,PIP5K2A,68.5%
same,Competition % PKD2,PKD2,37.9%
same,Competition % BCKDK,BCKDK,8%
same,Competition % CaMK2g,CaMK2g,15.2%
same,Competition % MAP3K1,MAP3K1,13.3%
